Measurements: patent US12661410B2, “Compounds for targeted degradation of RET” (C4 Therapeutics, Inc., priority 2020, dated 2026)
Substitutions are numbered along the chain they refer to. Where two headings read alike, the source gives them in different places.

How the values were obtained:
RET(KD: 658-1114 G810R) = molecular target: T1, RET(KD: 658-1114 G810R) (Homo sapiens, UniProt P07949, G810R); test: HiBiT-Degradation, RET G810R degradation assay (Nano-Glo HiBiT Lytic), 293T.165 cells; assay type: cell-based; conditions: for Emax / DC50: 6.0 hours; for Emax: % remaining protein, read-out: 293T.165 RET(KD: 658-1114 G810R) 6.0 hours (Emax); for DC50: read-out: 293T.165 RET(KD: 658-1114 G810R) 6.0 hours (DC50)
T1 construct: 658-1114; expressed in transfected cells; host or cells: 293T.165 (293T cells, generated in-house)
T1 sequence (P07949 658-1114 G810R): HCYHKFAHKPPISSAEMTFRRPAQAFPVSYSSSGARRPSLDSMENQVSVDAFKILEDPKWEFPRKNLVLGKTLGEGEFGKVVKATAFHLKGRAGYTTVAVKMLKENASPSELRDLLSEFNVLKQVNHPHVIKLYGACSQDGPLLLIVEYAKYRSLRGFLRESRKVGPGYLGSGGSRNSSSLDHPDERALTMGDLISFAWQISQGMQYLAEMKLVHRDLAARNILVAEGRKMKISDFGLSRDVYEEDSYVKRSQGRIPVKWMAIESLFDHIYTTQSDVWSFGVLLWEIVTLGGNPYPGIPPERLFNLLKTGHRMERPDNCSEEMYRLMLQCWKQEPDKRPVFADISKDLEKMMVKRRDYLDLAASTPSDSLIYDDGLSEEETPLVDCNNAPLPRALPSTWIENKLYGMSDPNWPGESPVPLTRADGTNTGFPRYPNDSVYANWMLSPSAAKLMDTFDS
Method in brief: (§1)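 Degradation after 6 h compound exposure (top 10 μM, 11 half-log points, duplicates) measured by Nano-Glo HiBiT lytic luminescence. Cells: 293T.144 carrying wild-type and 293T.165 carrying G810R HiBiT-RET kinase domain; curves yield DC50 and Emax.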

RET (658-1114) = molecular target: T2, RET (658-1114) (Homo sapiens, UniProt P07949); test: HiBiT-Degradation, RET wild-type degradation assay (Nano-Glo HiBiT Lytic), 293T.144 cells; assay type: cell-based; conditions: for DC50 / Emax: 6.0 hours; for DC50: read-out: 293T.144 RET (658-1114) 6.0 hours (DC50); for Emax: read-out: 293T.144 RET (658-1114) 6.0 hours (Emax)
T2 construct: 658-1114; expressed in transfected cells; host or cells: 293T.144 (293T cells, generated in-house)
T2 sequence (P07949 658-1114): T1 sequence (P07949 658-1114 G810R) with R153G
Method in brief: as §1

[1] = half-maximal degradation concentration

| Compound | Emax (RET(KD: 658-1114 G810R)) [%] | DC50 (RET(KD: 658-1114 G810R); [1]) [nM] | 293T.165 RET(KD: 658-1114 G810R) 6.0 hours (Emax) (RET(KD: 658-1114 G810R); HiBiT-Degradation) | 293T.165 RET(KD: 658-1114 G810R) 6.0 hours (IP) [nM] (RET(KD: 658-1114 G810R); HiBiT-Degradation) | DC50 (RET(KD: 658-1114 G810R); HiBiT-Degradation) [nM] | 293T.144 RET (658-1114) 6.0 hours (IP) [nM] (RET (658-1114); HiBiT-Degradation) | DC50 (RET (658-1114); HiBiT-Degradation) [nM] | Emax (RET (658-1114); HiBiT-Degradation) [%] | 293T.165 RET(KD: 658-1114 G810R) 6.0 hours (IP) [nM] (RET(KD: 658-1114 G810R)) | 293T.144 RET (658-1114) 6.0 hours (IP) [nM] (RET (658-1114)) | Emax (RET (658-1114); % remaining protein) [%] | DC50 (RET (658-1114); [1]) [nM] |
| --- | --- | --- | --- | --- | --- | --- | --- | --- | --- | --- | --- | --- |
| N#Cc1cnn2cc(-c3ccc(N4CCN(C(=O)CN5CCC(c6ccc(NC7CCC(=O)NC7=O)cc6F)CC5)CC4)cc3)cc(-c3ccc(N4CCN(C(=O)Cc5ccc(F)cn5)CC4)nc3)c12 (stereo not shown) [Compound 16, 6-[4-[4-[2-[4-[4-[(2,6-dioxo-3-piperidyl)amino]-2-fluoro-phenyl]-1-piperidyl]acetyl]piperazin-1-yl]phenyl]-4-[6-[4-[2-(5-fluoro-2-pyridyl)acetyl]piperazin-1-yl]-3-pyridyl]pyrazolo[1,5-a]pyridine-3-carbonitrile] | < 30 | < 100 | ++++ (< 30% = ++++) | ++++ (< 50 nM = ++++) | < 100 | ++++ (< 50 nM = ++++) | < 50 | < 30 | – | – | – | – |
| CC(C)NC(=O)C1(C)CCN(c2ccc(-c3cc(-c4ccc(N5CCN(C(=O)CN6CCC(c7ccc(NC8CCC(=O)NC8=O)cc7F)CC6)CC5)cc4)cn4ncc(C#N)c34)cc2)CC1 (stereo not shown) [Compound 50, 1-[4-[3-cyano-6-[4-[4-[2-[4-[4-[(2,6-dioxo-3-piperidyl)amino]-2-fluoro-phenyl]-1-piperidyl]acetyl]piperazin-1-yl]phenyl]pyrazolo[1,5-a]pyridin-4-yl]phenyl]-N-isopropyl-4-methyl-piperidine-4-carboxamide] | < 30 | < 100 | ++++ (< 30% = ++++) | ++++ (< 50 nM = ++++) | < 100 | ++++ (< 50 nM = ++++) | < 50 | < 30 | – | – | – | – |
| CC(C)NC(=O)C1(C)CCN(c2ccc(-c3cc(-c4cnn(C5CCC6(CC5)CN(C(=O)CN5CCC(c7ccc(NC8CCC(=O)NC8=O)cc7)CC5)C6)c4)cn4ncc(C#N)c34)cn2)CC1 (stereo not shown) [Compound 196, 1-(5-(3-cyano-6-(1-(2-(2-(4-(4-((2,6-dioxopiperidin-3-yl)amino)phenyl)piperidin-1-yl)acetyl)-2-azaspiro[3.5]nonan-7-yl)-1H-pyrazol-4-yl)pyrazolo[1,5-a]pyridin-4-yl)pyridin-2-yl)-N-isopropyl-4-methylpiperidine-4-carboxamide] | < 30 | < 100 | – | – | – | – | – | – | ++++ (<50 nM = ++++) | ++++ (<50 nM = ++++) | < 30 | < 50 |

The remaining lines, values ahead:

| Emax (RET(KD: 658-1114 G810R)) [%] | DC50 (RET(KD: 658-1114 G810R); [1]) [nM] | 293T.165 RET(KD: 658-1114 G810R) 6.0 hours (Emax) (RET(KD: 658-1114 G810R); HiBiT-Degradation) | 293T.165 RET(KD: 658-1114 G810R) 6.0 hours (IP) [nM] (RET(KD: 658-1114 G810R); HiBiT-Degradation) | DC50 (RET(KD: 658-1114 G810R); HiBiT-Degradation) [nM] | 293T.144 RET (658-1114) 6.0 hours (IP) [nM] (RET (658-1114); HiBiT-Degradation) | DC50 (RET (658-1114); HiBiT-Degradation) [nM] | Emax (RET (658-1114); HiBiT-Degradation) [%] | 293T.165 RET(KD: 658-1114 G810R) 6.0 hours (IP) [nM] (RET(KD: 658-1114 G810R)) | 293T.144 RET (658-1114) 6.0 hours (IP) [nM] (RET (658-1114)) | Emax (RET (658-1114); % remaining protein) [%] | DC50 (RET (658-1114); [1]) [nM] | Compound |
| --- | --- | --- | --- | --- | --- | --- | --- | --- | --- | --- | --- | --- |
| < 30 | < 100 | – | – | – | – | – | – | ++++ (<50 nM = ++++) | ++++ (<50 nM = ++++) | < 30 | < 50 | CCC1(C(=O)NC2CCC2)CCN(c2ccc(-c3nc(-c4cnn([C@H]5CC[C@H](N6CCC(c7ccc8c(N9CCC(=O)NC9=O)nn(C)c8c7F)CC6)CC5)c4)cn4ncc(C#N)c34)cn2)CC1 (single isomer, unassigned) [Compound 138, 1-(5-(3-Cyano-6-(1-((1r, 4r)-4-(4-(3-(2,4-dioxotetrahydropyrimidin-1(2H)-yl)-7-fluoro-1-methyl-1H-indazol-6-yl)piperidin-1-yl)cyclohexyl)-1H-pyrazol-4-yl)pyrazolo[1,5-a]pyrazin-4-yl)pyridin-2-yl)-N-cyclobutyl-4-ethylpiperidine-4-carboxamide] |
| < 30 | < 100 | – | – | – | – | – | – | +++ (<100 nM = +++) | ++++ (<50 nM = ++++) | < 30 | < 50 | CCC1(C(=O)NC2CCC2)CCN(c2ccc(-c3nc(-c4cnn(C5CCN([C@@H]6CCN(c7ccc(N[C@@H]8CCC(=O)NC8=O)cc7F)CC6(F)F)CC5)c4)cn4ncc(C#N)c34)cn2)CC1 (single isomer, unassigned) [Compound 192] |
